“Also recorded” adds a separate entry of the source. Non-standard residues stand in square brackets, D forms with d. Residues, ends and D or L forms follow the SMILES beside them. *: point of attachment. NBD = O=[N+]([O-])c1ccc(*)c2nonc12; Nle = CCCC[C@H](N)C(=O)O; Ahx = NCCCCCC(=O)O
How the values were obtained:
[1] = Stability in ARDS bronchoalveolar lavage fluid (MALDI-TOF MS); assay type: in vitro ADME, human; settings: for stability in ARDS BALF: human ARDS BALF pooled from three patients vs PBS, 5 and 30 min
Source text: To determine the ability of UBI-3 to image bacteria in the continued presence of a complex inflammatory environment, bacteria were labelled with UBI-3 in the presence of broncho-alveolar lavage fluid (BALF) retrieved from ventilated ICU patients with Acute Respiratory Distress Syndrome (ARDS). ARDS BALF was utilised as ARDS is a severe life threatening pulmonary syndrome, characterized by a massive proteolytic and oxidative inflammatory environment within the distal alveolar region.[14] […] To design out susceptible amino acid cleavage points, a number of modifications were made (Table 1) and the functional consequences assessed. The chemical approaches pursued to improve resistance to degradation included replacing amino acids at the cleavage positions with non-natural amino acids such as N-methyl or D-amino acids,[15] and cyclisation of the peptide,[16] which could have the added benefit of enhancing affinity towards bacterial membrane.[17]
The Arg–Arg bonds were identified as the prominent position of degradation (Fig. 5) and Compounds UBI-4–9 (Table 1) were synthesised with a variety of substitutions around the degradation sites. The susceptible peptide bonds at P1–P2 and P7–P8 were blocked using N-MeArg (UBI-4), and to further mask these positions, a long polyethylene glycol (PEG) chain and/or a D-amino acid were positioned at the carboxylic and/or amino termini (UBI-5–7).
We hypothesized that cyclisation of the sequence would allow for greater stability and also improve bacterial affinity and therefore cyclic variants of UBI-3 were synthesized (UBI-10 and UBI-11), which were both found to be stable in BALF for 5 minutes (Fig. 7 and S3 ESI ^†). […] However, these studies also highlighted the degradation of UBI-10 at 10 minutes, guiding the temporal constraints of Smartprobe delivery and optical imaging.
Fig. 7 UBI-10 remains stable in ARDS BALF at 5 minutes. (A) Structure of UBI-10 with breakdown products in ARDS BALF. […] TEXT PRINTED IN THE PICTURE: UBI-10: Molecular Weight: 2118.41 | Fragment A: Molecular Weight: 1923.18 | Fragment B: Molecular Weight: 1980.23 DOUBTS OF THE COPYIST ABOUT THIS PICTURE: UBI-10, Molecular Weight: very small print, 2118.41 is the best reading; the digits 8 and 4 are uncertain / Fragment A, Molecular Weight: very small print, 1923.18 is the best reading; the digits 9, 3 and 8 are uncertain / Fragment B, Molecular Weight: very small print, 1980.23 is the best reading; the digits 9, 8 and 3 are uncertain […]
Supplementary Information
A Labelled-Ubiquicidin Antimicrobial Peptide for Immediate In Situ Optical Detection of Live Bacteria in Human Alveolar Lung Tissue
Ahsan R Akram, Nicolaos Avlonitis, Annamaria Lilienkampf, Ana M Perez-Lopez, Neil McDonald, Sunay V Chankeshwara, Emma Scholefield, Christopher Haslett, Mark Bradley & Kevin Dhaliwal.
Figure S1: MALDI-TOF MS spectra for a stability study of UBI-3 in PBS and in ARDS BALF […]
Figure S2. MALDI-TOF MS spectra of modified analogues UBI-4 to UBI-9 in Phosphate Buffered Saline and ARDS BALF over a period of 5 and 30min.
Figure S3: MALDI-TOF MS spectra of UBI-11 in Phosphate Buffered Saline vs ARDS BALF […]
Figure S4. Quantified fluorescence of confocal microscopy images of the compounds UBI-3, UBI-5 and UBI-10 on three bacteria and fluorescence retention following a PBS wash.
Figure S5: Fibered confocal fluorescence microscopy imaging of human lung and Calcein AM stained Methicillin sensitive S. aureus.
Experimental Details including Tables M1-4, Figure M1 and HPLC Chromatograms.
(also on this page, place not known: Electronic Supplementary Material (ESI) for Chemical Science. This journal is © The Royal Society of Chemistry 2015)
(1 picture or pasted object on this page, not shown here) […]
BALF Retrieval: Bronchoalveolar lavage was performed in the Intensive Care Unit (ICU), as previously described. S5 Pooled samples from three patients were used for stability assays. […]
Exposure to 488 nm light was limited to 5% […]

[2] = test system: isolated human neutrophils; assay: Co-culture of bacteria and isolated human neutrophils, confocal specificity; assay type: cell-based
Source text: Neutrophil Isolation: Neutrophils for in vitro experiments were isolated from peripheral venous blood of healthy human volunteers (Ethical approval was obtained from the Lothian Research Ethics Committee). Blood was anticoagulated with sodium citrate (0.38% final concentration) and polymorphonuclear leukocytes were isolated via dextran sedimentation followed by centrifugation through discontinuous plasma-Percoll gradients, as previously described. S4 […]
Confocal Analysis and Fluorescence Quantification: 8-Well Lab-Tek II Confocal Chambers (VWR, PA, USA) were coated in fibronectin (for neutrophil experiments) or poly-d-lysine (for bacteria) at 37 °C for 20 minutes, then washed in PBS prior to bacterial innoculation. For co-culture assays, neutrophils were seeded on fibronectin coated wells at 1 x 10^5 neutrophils per well for 20 minutes and non-adherent neutrophils aspirated. Bacteria were added to each chamber to a final concentration of 0.5 OD595 nm with the desired final concentration of Smartprobe. A laser-scanning confocal imaging system (LSM510; Carl Zeiss, Jena, Germany), incorporating an upright Axioskop FS2 microscope (63× objective) was used for image acquisition and processing. Exposure to 488 nm light was limited to 5% of the maximum laser power in order to minimize toxicity. ‘Green’ fluorescence (for FAM and NBD) was excited with a dedicated 488 nm line and emitted light detected with meta detector (500-530 nM).
Syto nuclear and dyes were excited with a dedicated 543 nm line, and emitted light detected with meta detector (570-610 nM). Fields of view were chosen based on the counterstain and at least three fields of view were recorded for each condition. For affinity assays, following initial imaging, the fluid was aspirated and two gentle washes with PBS were performed. The chamber was re-imaged on confocal.
Analysis was with ImageJ (version 1.46r, National Institutes of Health, USA); the Syto channel was automatically thresholded (MaxEntropy, with a set threshold 0-47) and an ROI generated from this. The

SMILES | stability in ARDS BALF ([1]; MALDI-TOF MS) | time of degradation of the peptide in ARDS BALF ([1]; human ARDS BALF, MALDI-TOF MS) [min] | labelling of neutrophils vs bacteria ([2]; bacteria with isolated human neutrophils, confocal) | time stable in ARDS BALF ([1]; human ARDS BALF, MALDI-TOF MS) [min] | time at which degradation products form in ARDS BALF ([1]; human ARDS BALF, MALDI-TOF time course) [min] | labelling of neutrophils at 10 μM ([2]; co-culture of isolated human neutrophils and methicillin sensitive S. aureus, 10 μM) | labelling of neutrophils at 50 μM ([2]; co-culture of isolated human neutrophils and methicillin sensitive S. aureus, 50 μM)
CCCC[C@H](NC(=O)[C@H](CCCNC(=N)N)NC(=O)[C@H](CCCNC(=N)N)NC(=O)[C@H](CCCCN)NC(=O)[C@H](C)NC(=O)[C@H](CCCNC(=N)N)NC(=O)CNC(=O)[C@@H](NC(=O)CCCCCNc1ccc([N+](=O)[O-])c2nonc12)[C@@H](C)O)C(=O)N[C@@H](CCC(N)=O)C(=O)N[C@@H](Cc1ccc(O)cc1)C(=O)N[C@@H](CC(N)=O)C(=O)N[C@@H](CCCNC(=N)N)C(=O)N[C@@H](CCCNC(=N)N)C(N)=O [UBI-3] ({NBD-Ahx}-TGRAKRR[Nle]QYNRR-NH2) | Unstable in ARDS BALF | < 5 | labels bacteria but not isolated human neutrophils | – | – | – | –
CCCC[C@@H]1NC(=O)[C@H](CCCNC(=N)N)NC(=O)[C@H](CCCNC(=N)N)NC(=O)[C@H](CCCCN)NC(=O)[C@H](C)NC(=O)[C@H](CCCNC(=N)N)NC(=O)CNC(=O)[C@H]([C@@H](C)O)NC(=O)[C@@H](NC(=O)CCCCCNc2ccc([N+](=O)[O-])c3nonc23)CCCCNC(=O)CNC(=O)[C@H](CCCNC(=N)N)NC(=O)[C@H](CCCNC(=N)N)NC(=O)[C@H](CC(N)=O)NC(=O)[C@H](Cc2ccc(O)cc2)NC(=O)[C@H](CCC(N)=O)NC1=O [UBI-10] | Improved stability in ARDS BALF | – | – | 5 | 10 | retained bacterial specificity over neutrophils; also recorded: no labelling of neutrophils | some neutrophil labelling was observed; also recorded: occasional neutrophil labelling was observed
